Reference: patent publication US6096743A, “1,2,3,4-tetrahydroquinoxalinedione derivative” (Yamanouchi Pharmaceuticals Co., Ltd., priority 1994, dated 2000)
Converted amounts (≈) assume the structure as drawn. Read-outs that look alike come from different tables or passages of the source.

Tests used:
[1] = biological target: AMPA receptor; experiment: inhibitory activity against the binding of [3H]-AMPA (rat cerebral membrane); settings: about 45 nM [3H]-AMPA, 45 minutes on ice water, non-specific: 10 μM quisqualic acid, read-out: Ki value, inhibition of [3H]-AMPA binding
Experimental: Inhibitory activity against the binding with [^3 H]-AMPA, kainic acid neurotoxicity and audiogenic seizure were confirmed as follows:
1) Measurement of inhibitory activity against the binding of [^3 H]-AMPA:
On ice water, 0.5 ml in total of a reaction liquid containing about 45 nM [^3 H]-AMPA [2-amino-3-(3-hydroxy-5-methyl-4-isoxazolyl)propionic acid], about […] of a sample of a rat cerebral membrane and a test compound was reacted for 45 minutes. The amount of [^3 H]-AMPA bound to the AMPA receptor was measured by the filtration method. A portion substituted by 10 μM quisqualic acid in the total bound amount was taken as the specific binding amount. Evaluation of the test compound was carried out by determining the binding inhibition ratio against the specific binding.

[2] = system: hippocampal neuron (kainic acid neurotoxicity); experiment: inhibitory activity against kainic acid neurotoxicity in primary culture of hippocampal neurons (LDH release); type: cell-based; settings: 300 μM kainic acid, 24 hours, fetal rat hippocampal neuron, read-out: IC50, inhibition of neuronal death caused by kainic acid
Experimental: 2) Measurement of inhibitory activity against kainic acid neurotoxicity:
Inhibitory action of the invention compound against kainic acid neurotoxicity was investigated using the primary culture system of the hippocampal neuron of a fetal rat.
(1) Incubation conditions
The hippocamp was cut out from a brain of the 18 to 20-day-old fetal rat and was subjected to enzyme treatment with papain and DNase I to disperse the cells. The cells so obtained were floated on MEM containing 10% serum and then were inoculated on a 48-well plate treated in advance with poly-I-lysine in a concentration of 4×10^5 cell/cm^2. Twenty four hours later, the serum was replaced by a serum-free medium. The medium replacement was carried out twice a week. The cells which were cultivated for at least 6 days were provided for the following test.
(2) Inhibition against kainic acid neurotoxicity
Neurotoxicity was expressed by an activity of lactate dehydrogenase released in the culture medium by the cell death. As a control, neurons which were exposed to a serum-free medium containing 300 μM kainic acid for 24 hours were used. Each compound, together with 300 μM kainic acid, was allowed to act on the neuron for 24 hours and inhibitory action of each compound against neuronal death caused by kainic acid was evaluated.

[3] = system: DBA/2 mouse (audiogenic seizure); experiment: audiogenic seizure inhibitory action in DBA/2 mouse; type: in vivo; settings: ip, 0.25 h, intraperitoneal, 15 minutes before stimulation by sound of 12 kHz and 120 dB, male 21 to 28-day-old mice, read-out: minimum effective dose (MED), suppression of audiogenic seizure
Experimental: 3) Measurement of audiogenic seizure inhibitory action in DBA/2 mouse
Ten male 21 to 28-day-old mice were exposed to auditory and stimulation by the sound of 12 kHz and 120 dB in a sound proof box for one minute or until these mice cause tonic seizure. The test compound was suspended in a 0.5% methylcellulose solution or dissolved in physiological saline and the resulting suspension or solution was intraperitoneally administered 15 minutes before the stimulation by the sound. The drug efficacy was evaluated by presence or absence of the appearance of seizure and the minimum effective dose (MED) was determined.

[4] = system: experimental animal models suffering from neuropathy, epilepsy or cerebral ischemia; settings: in vivo; cited from earlier work
[5] = solubility in phosphate buffers of pH 5, 6, 7 and 8; type: physicochemical; settings: aqueous buffer
Experimental: 4) Measurement of solubility
To a 0.1M aqueous solution of potassium dihydrogenphosphate, a 0.1M aqueous solution of […] was added, whereby buffers having pH of 5, 6, 7 and 8 were prepared, respectively.
Measurement of Solubility:
About 5 mg portions of the invention compound were weighed precisely in four glass test tubes and 0.1 ml phosphate buffers having pH 5, 6, 7 and 8 were added, respectively, followed by thorough shaking. The value obtained in accordance with the following equation was taken as the solubility. [formula]

[6] = system: AMPA/kainate receptor; settings: cited from earlier work
[7] = system: neuronal culture system; settings: substance alone; cited from earlier work
[8] = system: experimental animal models suffering from cerebral ischemia; settings: in vivo; cited from earlier work
[9] = phosphate buffer pH 6, read-out: solubility, pH 6

SMILES: O=C(O)Cn1c(=O)c(=O)[nH]c2cc(OCc3ccccc3)c(-n3ccnc3)cc21 [Example 19, 2-[6-benzyloxy-2,3-dioxo-7-(1H-imidazol-1-yl)-1,2,3,4-tetrahydroquinoxalin-1-yl]acetic acid]
- Ki [1]: 70 nM
- IC50 [2]: 480 nM
- minimal effective dose [3]: 1 mg/kg

SMILES: NC(CCCP(=O)(O)O)C(=O)O (stereo not shown) [2-amino-5-phosphonovalerianic acid]
- effect in experimental animal models of neuropathy, epilepsy or cerebral ischemia (in words) [4]: effective

SMILES: NC(CCCCCP(=O)(O)O)C(=O)O (stereo not shown) [2-amino-7-phosphonoheptanic acid]
- effect in experimental animal models of neuropathy, epilepsy or cerebral ischemia (in words) [4]: effective

SMILES: O=C(O)Cn1c(=O)c(=O)[nH]c2cc(C(F)(F)F)c(-n3ccnc3)cc21 [Example 9, 2-[2,3-dioxo-7-(1H-imidazole-1-yl)-6-trifluoromethyl-1,2,3,4-tetrahydroquinoxalin-1-yl]acetic acid]
- Ki [1]: 93 nM
- IC50 [2]: 960 nM
- minimal effective dose [3]: 10 mg/kg
- solubility [5, 9]: 4100 µg/mL (≈ 11.6 mM)

SMILES: Cc1onc(O)c1CC(N)C(=O)O (stereo not shown) [AMPA, 2-amino-3-(3-hydroxy-5-methyl-4-isoxazolyl)propionic acid]
- affinity with the AMPA/kainate receptor (in words) [6]: high affinity
- neuronal cell death in neuronal culture (in words) [7]: weak

SMILES: NC1CCN(O)C1=O (stereo not shown) [HA-966]
- effect in experimental animal models of cerebral ischemia (in words) [8]: effective

SMILES: C=C(C)[C@H]1CN[C@H](C(=O)O)[C@H]1CC(=O)O [kainic acid]
- affinity with the AMPA/kainate receptor (in words) [6]: low affinity
- neuronal cell death in neuronal culture (in words) [7]: causes marked neuronal cell death

SMILES: O=C(O)Cn1c(=O)c(=O)[nH]c2cc([N+](=O)[O-])c(-n3ccnc3)cc21 [Example 1, 2-[2,3-dioxo-7-(1H-imidazol-1-yl)-6-nitro-1,2,3,4-tetrahydroquinoxalin-1-yl]acetic acid]
- Ki [1]: 730 nM
- IC50 [2]: 800 nM
- minimal effective dose [3]: 3 mg/kg
- solubility ([5]; phosphate buffer pH 5, read-out: solubility, pH 5): 2490 µg/mL (≈ 7.51 mM)
- solubility [5, 9]: 2620 µg/mL (≈ 7.91 mM)
- solubility ([5]; phosphate buffer pH 7, read-out: solubility, pH 7): 3640 µg/mL (≈ 11 mM)
- solubility ([5]; phosphate buffer pH 8, read-out: solubility, pH 8): 5130 µg/mL (≈ 15.5 mM)

SMILES: NS(=O)(=O)c1cccc2c1c([N+](=O)[O-])cc1[nH]c(=O)c(=O)[nH]c12 [NBQX]
- effect in experimental animal models of cerebral ischemia (in words) [8]: effective
